# Assays:
# Type in all cases: cell-based, human
# [1] = system: genes located in the regions of downregulation in cell line CL1207; assay: Re-expression of genes in the regions of downregulation, RT-qPCR, CL1207 cell line; settings: for re-expression of genes in downregulated regions 2-7, 3-2, 3-5, 7-2, 14-1, 19-3A and 19-3B: 300 nM TSA 16 hours, 5 μM 5-aza-deoxycytidine 72 hours, or 5 μM 5-aza-deoxycytidine 48 hours followed by 300 nM TSA 10 hours; for re-expression of genes in regions 6-7 and 17-7: same treatments, effect if fold-change >1.5
# From the text: FIG. 3: […] The treatments were scored as having an effect (resulting in re-expression) if the fold-change between treated and non-treated was greater than 1.5. […] With both methods, all samples were run in duplicate. For all experiments involving […] and CL1207 both methods were used.
# [2] = system: genes within the seven epigenetic regions in TCCSUP, HT1376 and JMSU1 cells; assay: Re-expression of genes of the seven RES regions after TSA, RT-qPCR (TLDA), cell lines TCCSUP, HT1376 and JMSU1
# Description: (§1) FIG. 10: Characterization of the regional epigenetic phenotype in bladder cancer cell lines. (a) Comparison of mRNA expression for genes in region 2-7 before and after treatment with TSA in bladder cancer cell lines and NHU cells; results obtained for the CL1207 cells (from FIG. 3) are also shown. Transcript values were measured by RT-qPCR using TLDA (see Materials and Methods in experimental section). The ratio between treated and non-treated cells is shown. Error bars represent the variation between the means of two independent experiments of TSA treatment. (b) Same comparison for region 3-2. (c) Same comparison for region 19-3A. (d) Summary of the effects of TSA treatment on all bladder cancer and NHU cell lines studied. Only groups of genes in which at least two genes were re-expressed after treatment are considered (see FIG. 11). (e) ChIP analysis in TCCSUP and RT112 cells for regions 2-7, 3-2 and 19-3A, with an antibody against trimethyl residues on lysine 9 of histone 3.
# (§2) FIG. 11: Comparison of the mRNA levels of the genes in regions 3-5, 7-2, 14-1 and 19-3B in bladder cancer and normal cells before and after treatment with TSA. mRNA levels were assessed by RT-qPCR using TLDA (see Materials and Methods in experimental section). The ratio between treated versus non-treated cells is shown. Error bars represent the variation between two independent experiments. […]
# [3] = system: genes within the seven epigenetic regions in NHU, MGHU3, RT112 and T24 cells; assay: Re-expression of genes of the seven RES regions after TSA, RT-qPCR (TLDA), NHU, MGHU3, RT112 and T24
# Description: as §1, §2
# [4] = system: cell lines without the RES phenotype (MGHU3, RT112 and T24) and NHU cells; assay: Trichostatin A sensitivity assay (living cells counted after 72 hours, treated versus non-treated); settings: doses 100 nM to 500 nM, read-out: IC50 (half maximal inhibitory concentration), growth inhibition
# Description: (§3) FIG. 13: Cell viability after treatment with various doses of trichostatin A in bladder cancer cell lines with or without the RES phenotype and NHU cells. The percentage of surviving treated versus non-treated cells as a function of TSA concentration for various bladder cancer (MGHU3, RT112, T24, TCCSUP, HT1376, JMSU1, CL1207) and normal (NHU) cell lines is indicated. The number of cells surviving post treatment with TSA for 72 hours was counted and compared to control (no treatment) cultures. Cell lines with the RES phenotype are indicated with full symbols (TCCSUP, HT1376, JMSU1, CL1207) whereas cell lines without the RES phenotype (NHU, MGHU3, RT112, T24) are indicated with empty symbols. The error bars indicate the mean variation between two independent experiments.
# (§4) All bladder cancer and NHU cell lines were seeded in 12-well plates at a density of 5×10^4 cells/well. Cultures were treated the next day, in duplicate, with various doses of trichostatin A, from 100 nM to 500 nM, with two wells left untreated. After 72 hours, the living cells in each treated well were harvested and counted and compared to the numbers of cells in the non-treated wells. The resulting ratio was used to assess sensitivity to trichostatin A.
# (§5) The RES phenotype was characterized by strong histone K9 and K27 methylation and K9 hypoacetylation, but extremely rare DNA methylation. […]
# [5] = system: cell lines with the RES phenotype (TCCSUP, HT1376, JMSU1 and CL1207); assay: as above; settings: on average for TCCSUP, doses 100 nM to 500 nM, read-out: IC50 (half maximal inhibitory concentration), growth inhibition
# Description: as §3, §4, §5
# [6] = system: H3K9me3, H3K27me3 and H3K9ac at gene promoters in CL1207 cells; assay: Chromatin immunoprecipitation (ChIP) of histone modifications in CL1207 before and after TSA; settings: 300 nM TSA for 16 h
# From the text: FIG. 5: Analyses of epigenetic modifications in regions 2-7 and 19-3A (a) Schematic map of region 2-7 (not to scale) with CpG islands, according to the UCSC browser. The number of CpG in each island is indicated. (b) DNA methylation analyses for region 2-7: bisulfite sequencing analyses for CpG 141 and CpG 39 covering a promoter region. In each case, T1207 DNA, CL1207 DNA, NHU DNA and SssI-methylated DNA (“Met. DNA”) were studied. Each row represents an individual clone, and each box (methylated in black, unmethylated in white) represents an individual CpG site. The curved arrows indicate the transcription start sites. (c) ChIP assays were performed for promoters in region 2-7 with antibodies against trimethyl H3K9 (left panel), trimethyl H3K27 (middle panel) and acetyl H3K9 (right panel). […] (d) Schematic map of region 19-3A with CpG islands. (e) ChIP analyses for region 19-3A as in (c).
# FIG. 6: Analyses of epigenetic modifications in region 3-2. (a) Schematic map of region 3-2 (not to scale) with CpG islands, according to the UCSC browser. The number of CpGs in each island is indicated. (b) DNA methylation analyses for region 3-2: bisulfite sequencing analyses for the three CpGs covering a promoter region: CpG 74, 59 and 68. In each case, DNA from T1207, CL1207 and NHU and SssI-methylated DNA (“Met. DNA”) were studied. Each row represents an individual clone and each box represents an individual CpG site. A black box indicates methylation and a white box no methylation. The curved arrows indicate the transcription start sites. (c) Methylation analysis of DLEC1 promoter by bisulfite sequencing in five tumor samples showing downregulation of region 3-2: T195, T259, T447, T910 and T1448. […]
# Chromatin immunoprecipitation (ChIP) assays were carried out in duplicate in three 150 cm^2 dishes for untreated CL1207, CL1207 treated with 300 nM TSA for 16 h, TCCSUP, RT112 and NHU cells. […] The amount of immunoprecipitated target was determined by real-time PCR, in duplicate, using the ABI PRISM 7900HT Sequence Detection System. […]
# [7] = most of the genes in all three regions
Structure (SMILES),"re-expression of genes in downregulated regions 2-7, 3-2, 3-5, 7-2, 14-1, 19-3A and 19-3B ([1]; effect if ratio >1.5)","genes re-expressed after 5-aza-deoxycytidine treatment alone ([1]; BSN (3-5), SKAP2, HOXA4, HOXA5 (7-2), EFS, AP1G2 (14-1), 5 μM, 72 hours)",re-expression of genes in regions 6-7 and 17-7 [1],"gene re-expression in repressed regions on chromosome 3 (VILL to ACAA1) and 2 (HOXD8 to HOXD1) ([1]; compared with TSA, effect if ratio >1.5)","re-expression of the regions in TCCSUP cell line ([2]; TCCSUP, TSA treatment)","re-expression of genes within the seven epigenetic regions ([2]; second group: TCCSUP, HT1376 and JMSU1, 300 nM TSA 16 hours)","re-expression of the regions in RT112 cells ([3]; RT112, TSA treatment)","re-expression of genes within the seven epigenetic regions ([3]; first group: NHU, MGHU3, RT112 and T24, 300 nM TSA 16 hours)",IC50 [4],IC50 [5],"H3K9 and H3K27 trimethylation at promoters of BSN, HOXA1, DHRS2 and JAK3 (regions 3-5, 7-2, 14-1, 19-3B) [6]","levels of active mark (H3K9ac) at promoters, regions 2-7, 3-2 and 19-3A [6, 7]","levels of inactive marks (H3K9me3, H3K27me3) at promoters, regions 2-7, 3-2 and 19-3A [6, 7]"
Nc1ncn([C@H]2C[C@H](O)[C@@H](CO)O2)c(=O)n1 [5-aza-deoxycytidine],reexpression of most of the genes in seven regions,re-expressed,either to no re-expression or re-expression of only one isolated gene,,,,,,,,,,
Nc1ccccc1NC(=O)c1ccc(CNC(=O)OCc2cccnc2)cc1 [MS275],,,,enabled gene re-expression in the studied regions as well as did TSA,,,,,,,,,
"CC(/C=C/C(=O)NO)=C\[C@@H](C)C(=O)c1ccc(N(C)C)cc1 [TSA, trichostatin A]",reexpression of most of the genes in seven regions,,either to no re-expression or re-expression of only one isolated gene,,all regions were re-expressed,gene re-expression was observed for most of the silenced regions after treatment,"no region was re-expressed, except two genes in region 7-2","most of the genes were not re-expressed, except for a few isolated genes in some cell lines",500 nM,100 nM,these marks were decreased,increased the levels of the active mark,decreased the levels of the inactive marks

# Reference: patent US20120282167A1, “METHOD FOR PREDICTING THE SENSITIVITY OF A TUMOR TO AN EPIGENETIC TREATMENT” (INSTITUT CURIE, priority 2009, published 2012)
